Measurements published in patent US12109207B2, “Methods of using 4(1H)-quinolone derivatives” (Academia Sinica, priority 2019, dated 2024).
Read-outs that look alike come from different tables or passages of the source.

Assays:
H1975 cells = experiment: Cell cytotoxicity assay (MTS), H1975; format: cell-based, human; conditions: H1975 cells, 72 h, MTS, read-out: IC50
Description: (§1) Cells were seeded into the wells of 96-well plates (2000 cells/well). After an overnight culture, the cells were treated with different concentrations of a compound for 72 h. The CellTiter 96 AQueous one-solution cell proliferation assay (MTS) reagent was used to determine cytotoxicity. After treatment with a compound, 20 μL of the MTS reagent was added to each well and the plates were incubated at 37° C. for 1-4 h. Next, the absorbance at 490 nm of the culture medium in each well was determined using a VersaMax microplate reader (Molecular Devices).

PC9 = experiment: Cell cytotoxicity assay (MTS), PC9; format: cell-based; conditions: Homo sapiens, PC-9, PC9, 72 h
Description: as §1

BT-549 = experiment: Cell cytotoxicity assay (MTS), BT-549; format: cell-based; conditions: Homo sapiens, BT-549, 72 h
Description: as §1

37T = experiment: Cell cytotoxicity assay (MTS), 37T; format: cell-based; conditions: Homo sapiens, 72 h
Description: as §1

IGR-OV1 = experiment: Cell cytotoxicity assay (MTS), IGR-OV1; format: cell-based; conditions: Homo sapiens, IGROV-1
Description: as §1

Ovcar-3 = experiment: Cell cytotoxicity assay (MTS), Ovcar-3; format: cell-based; conditions: Homo sapiens
Description: as §1

OECM1 = experiment: Cell cytotoxicity assay (MTS), OECM1; format: cell-based; conditions: Homo sapiens
Description: as §1

HCT116 = experiment: Cell cytotoxicity assay (MTS), HCT116; format: cell-based; conditions: Homo sapiens, HCT-116
Description: as §1

HT-29 = experiment: Cell cytotoxicity assay (MTS), HT-29; format: cell-based; conditions: Homo sapiens
Description: as §1

PC-3 = experiment: Cell cytotoxicity assay (MTS), PC-3; format: cell-based; conditions: Homo sapiens
Description: as §1

Molt4 = experiment: Cell cytotoxicity assay (MTS), Molt4; format: cell-based; conditions: Homo sapiens, MOLT-4
Description: as §1

[1] = test system: human fibroblast (HFB) cells; experiment: Cell cytotoxicity assay (MTS), human fibroblast; format: cell-based; conditions: normal cell line HFB
Description: as §1

KBtax = experiment: Cell cytotoxicity assay (MTS), KBtax; format: cell-based, human
Description: as §1

CEM/VBL = experiment: Cell cytotoxicity assay (MTS), CEM/VBL; format: cell-based, human; conditions: CEM/VBL vs CCRF-CEM
Description: as §1

23 cancer cell lines = experiment: Cytotoxicity against 23 cancer cell lines; format: cell-based, human
Description: as §1

H1975 xenograft tumor = H1975 xenograft tumor model; format: in vivo, BALB/c nude mice; conditions: day 25
Description: (§2) Using the H1975, MDA-MB-231, and KBtax xenograft models, tumors were established after inoculation into the right flanks of 6-week-old BALB/c nude mice (NARLabs, Taipei, Taiwan). After establishment of the tumors, vehicle and test compounds, which had been dissolved in DMSO, were each injected intraperitoneally into a separate group of animals three times per week. The body mass of each animal and tumor volumes were measured before each drug delivery. Tumor volume was calculated as 0.5W^2L (with W being the width of the smaller diameter and L being the length of the larger diameter). The animal experiment was carried out in accordance with the procedures and guidelines of the Institutional Animal Care and Use Committee, Institute of Biomedical Sciences, Academia Sinica.

tubulin = tubulin (Sus scrofa, UniProt P02554); experiment: Binding affinity assay (surface plasmon resonance); conditions: steady-state model, 25° C.; read-out: dissociation constant (KD) for the tubulin-AS1712 complex
Description: Surface plasmon resonance technology was used to analyze the binding affinity of AS1712 for tubulin. A Series S Sensor Chip SA was conditioned with three consecutive 1-min injections of 1 M NaCl in 50 mM NaOH, and then 50 μg/mL biotin-tubulin (Cytoskeleton) was immobilized onto the sensor chip surface in a Biacore T200 system (GE Healthcare) to attain 3,000 resonance units. One flow cell on the chip was left free to serve as the negative control. Biocytin (Sigma Aldrich) was used to block any remaining unmodified streptavidin sites. Different concentrations of AS1712 in 10 mM HEPES, 150 mM NaCl, 3 mMEDTA, and 0.05% surfactant P20, pH 7.4 were separately injected over the sensor chip surface to measure the association and dissociation of AS1712 and tubulin at 25° C. The value of KD was calculated using the steady-state fitting mode in Biacore T200 Evaluation Software.

[2] = Body mass and serum biochemical markers, H1975 xenograft mice; format: in vivo, BALB/c nude mice; conditions: for ALT (IU/L) / AST(IU/L) / BUN / Cre: day 25, mean ± SEM
Description: as §2

CL1-0 and H1975 cells [3] = experiment: Colony formation assay; format: cell-based, human; conditions: 12.5-200 nM, 14 days
Description: Cells were seeded into the wells of six-well plates (1000 cells/well). After overnight culture, the cells were treated with various concentrations of AS1712 for 2 weeks. Then, the colonies in each well were fixed with 3.7% paraformaldehyde, stained with 0.04% crystal violet, and dissolved in 1 ml DMSO. The absorbance at 590 nm of each DMSO solution was read using the VersaMax microplate reader.

CL1-0 and H1975 cells [4] = experiment: Pro-apoptotic protein immunoblotting, cancer cells; format: cell-based, human; conditions: 24 to 72 h
Description: The cells were harvested and lysed in RIPA buffer (20 mM Tris-HCl, 150 mM NaCl, 1 mM Na2EDTA, 1% sodium deoxycholate, 1% IGEPAL CA-630, 0.1% SDS, pH 7.5) with protease inhibitors (Roche). Protein concentration was measured by the BCA assay. For immunoprecipitation, protein extracts were incubated with mag-beads-AS1712 or mag-beads-control at 4° C. overnight and then washed five times with PBS before immunoblotting. For immunoblotting, equivalent amounts of denatured proteins were separated through SDS-PAGE gels and then transferred to PVDF membranes (Millipore), which were each blocked with 5% nonfat milk in PBS and 0.1% Tween-20 (Sigma Aldrich) for 1 h. Then each membrane was incubated with a primary antibody overnight at 4° C., followed by incubation with a horseradish peroxidase conjugated secondary antibody for 1 h at room temperature. The signal was visualized by enhanced chemiluminescence detection, and images were acquired using a BioSpectrum Imaging System (UVP).

Chain of tubulin (P02554 whole entry): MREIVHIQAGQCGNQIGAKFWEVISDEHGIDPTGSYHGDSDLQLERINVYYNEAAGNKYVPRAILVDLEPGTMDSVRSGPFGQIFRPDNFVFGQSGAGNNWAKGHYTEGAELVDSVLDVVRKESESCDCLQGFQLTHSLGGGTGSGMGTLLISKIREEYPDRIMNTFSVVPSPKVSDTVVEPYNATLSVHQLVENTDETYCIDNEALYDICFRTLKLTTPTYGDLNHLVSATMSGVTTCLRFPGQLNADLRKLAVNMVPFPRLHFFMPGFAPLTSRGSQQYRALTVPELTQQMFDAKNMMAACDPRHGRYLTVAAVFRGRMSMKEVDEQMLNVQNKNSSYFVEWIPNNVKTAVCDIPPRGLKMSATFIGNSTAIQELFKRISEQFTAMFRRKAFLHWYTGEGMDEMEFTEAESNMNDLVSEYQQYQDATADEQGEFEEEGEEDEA
Chain of tubulin (P02550 whole entry partner): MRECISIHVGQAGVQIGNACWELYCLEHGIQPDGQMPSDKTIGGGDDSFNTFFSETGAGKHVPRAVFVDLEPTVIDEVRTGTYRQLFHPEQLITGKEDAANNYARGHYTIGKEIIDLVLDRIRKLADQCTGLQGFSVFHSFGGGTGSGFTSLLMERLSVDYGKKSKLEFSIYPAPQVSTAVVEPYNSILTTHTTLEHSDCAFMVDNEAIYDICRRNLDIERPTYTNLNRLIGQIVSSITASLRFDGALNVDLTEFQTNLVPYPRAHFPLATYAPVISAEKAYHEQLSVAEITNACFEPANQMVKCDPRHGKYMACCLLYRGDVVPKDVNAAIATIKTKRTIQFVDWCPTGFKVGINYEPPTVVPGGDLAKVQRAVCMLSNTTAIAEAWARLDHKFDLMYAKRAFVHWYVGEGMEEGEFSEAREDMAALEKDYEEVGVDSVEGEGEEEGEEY

Question: What does the source list for `CCOC(=O)c1ccc2[nH]c(-c3ccccc3)cc(=O)c2c1` [AS1712, Ethyl 4-oxo-2-phenyl-1,4-dihydroquinoline-6-carboxylate]?
Answer: IC50 (H1975 cells): 35 nM; IC50 (H1975 cells; Homo sapiens, NCI-H1975, 72 h): 33 ± 4.86 nM; IC50 (PC9): 17 ± 2.09 nM; IC50 (BT-549): 33 ± 1.51 nM; IC50 (37T): 34 ± 2.99 nM; IC50 (IGR-OV1): 84 ± 2.07 nM; IC50 (Ovcar-3): 28 ± 1.08 nM; IC50 (OECM1): 52 ± 1.94 nM; IC50 (HCT116): 50 ± 0.81 nM; IC50 (HT-29): 48 ± 0.62 nM; IC50 (PC-3): 45 ± 1.77 nM; IC50 (Molt4): 38 ± 1.03 nM; IC50 [1]: > 10 µM; IC50 (KBtax; Homo sapiens, KBtax, P-gp overexpressing, paclitaxel-selected KB subline): 30 ± 0.65 nM; RF, resistance factor (IC50 in resistant cell line/IC50 in parent cell line) (KBtax; KBtax vs KB): 0.81; RF, resistance factor (IC50 in resistant cell line/IC50 in parent cell line) (CEM/VBL): 0.97; IC50 (23 cancer cell lines; Homo sapiens, lung, breast, ovarian, head and neck, colon, prostate, leukemia lines, read-out: IC50 values for the 23 cancer cell lines tested): 16 to 84 nM; therapeutic window (23 cancer cell lines; cancer cell lines vs normal cells): > 100 fold; average tumor size (H1975 xenograft tumor; 4 mg/kg intraperitoneally three times a week): 871.3±106 mm^3; average tumor size (H1975 xenograft tumor; 8 mg/kg intraperitoneally three times a week): 587.2±67 mm^3; Kd (tubulin): 13.8 µM; ALT (IU/L) ([2]; 4 mg/kg): 40.8 ± 11 IU/L; AST(IU/L) ([2]; 4 mg/kg): 138.7 ± 58.6 IU/L; BUN ([2]; 4 mg/kg): 23.2 ± 2.5 mg/dL; Cre ([2]; 4 mg/kg): 0.26 ± 0.05 mg/dL; ALT (IU/L) ([2]; 8 mg/kg): 54.2 ± 16 IU/L; AST(IU/L) ([2]; 8 mg/kg): 170.8 ± 44.5 IU/L; BUN ([2]; 8 mg/kg): 20.9 ± 1.5 mg/dL; Cre ([2]; 8 mg/kg): 0.17 ± 0.02 mg/dL; body mass ([2]; 4 or 8 mg/kg i.p. three times a week, end of experiment): non-toxic affected; colony-forming abilities (CL1-0 and H1975 cells [3]): suppressed in a dose-dependent manner; cleavage of poly(ADP-ribose) polymerase (PARP) and caspase-3 (CL1-0 and H1975 cells [4]): induced cleavage
